US20230190887A1, “TARGETING G3BP AGGREGATION TO PREVENT NEURODEGENERATION” (priority 2019, published 2023)

Legend:
[1] = system: G3BP1 aggregates in cortical neurons; assay: Endogenous G3BP1 aggregates in Aβ-treated cortical neurons; assay type: cell-based, rat; details: Aβ oligomers plus peptide
Excerpt: Given that the G3BP1 190-208 peptide prevents degeneration induced by treatment with neurotoxins such as MPP+ and Aβ oligomer and decreases G3BP1 aggregates formed due MPP+ and Aβ treatment.
(A) Size of endogenous G3BP1 aggregates per 100 μm of neurite is shown as indicated bins from midbrain cultures under control conditions and after treatment with MPP+alone or with 190-208 G3BP1 or 168-189 peptides. (B) Size distribution of endogenous G3BP1 aggregates per 100 μm of neurite is shown from cortical neurons treated with 1 μM Aβpeptide or with […] 190-208 G3BP1 or 168-189 control peptide. Non-treated neurons were used as a control. […] (N≥90 over 3 cultures; by two-way ANOVA with Tukey HSD post-hoc).

[2] = system: G3BP1 and pTDP-43 particles in C9ORF72 iPS-MN axons; assay: G3BP1/pTDP-43 RNP condensates in iPS-MN axons; assay type: cell-based, human; details: peptide exclusively in the axonal compartment of the MFC
Excerpt: Formation of G3BP1-positive RNP condensates is strongly associated with repressed RNA translation, see Sahoo, P. K. et al. A Ca^2+ dependent switch activates axonal casein kinase 2α translation and drives G3BP1 granule disassembly for axon regeneration. Curr. Biol. 30, 4882-4895.e6 (2020), and altered mRNA transport, see Liao, Y. C. et al. RNA granules hitchhike on lysosomes for long-distance transport, using Annexin All as a molecular tether. Cell 179, 147-164.e20 (2019), leading to reduced protein synthesis, see Sahoo, P. K. et al. Axonal G3BP1 stress granule protein limits axonal mRNA translation and nerve regeneration. Nat. Commun. 9, 1-14 (2018). […] By quantifying OPP puncta density within in vitro NMJs, we identified robust protein synthesis within control co-cultures, while protein synthesis in TDPΔNLS NMJs was severely impaired (FIG. 19 3k-l). […] Unpaired-t-test, two-sided ****p<0.0001. c Images and d-f quantification of NFH, pTDP-43 and G3BP1 and their colocalization in C9ORF72 iPS-MN axons either treated or not with G3BP1 peptide. Quantifications of G3BP1 particle density (d), G3BP1-pTDP-43 coloc-particle density (e) and G3BP1-pTDP-43 coloc-particle size (f) from C9ORF72 and control iPS-MN axons, either treated or not with G3BP1 peptide. […] One-way-ANOVA with Holm-Sidak correction. […], ****p<0.0001. i Images and j quantification of OPP puncta density in control or ΔNLS MN axons. […]

[3] = system: TDPΔNLS MN-muscle co-cultures; assay: Co-culture contraction analysis; assay type: cell-based, mouse; details: 20 μM G3BP1 peptides in NMJ compartment
Protocol: Muscles in co-culture were kept in BA medium for 7 days. To aid NMJ formation, media in all compartments was then replaced to poor neurobasal (PNB) medium, which contained only 1% P/S and 1% Glutamax. Doxycycline was applied to TDP-43ΔNLS cultures only at the proximal MN compartment, in a concentration of 0.1 μg/mL, immediately after plating and throughout the entire experimental timeline. For TDPΔNLS recovery experiments (FIGS. 7-8), Doxycline was […] at the proximal MN compartment after 5 DIV, and the cultures were grown until 11 DIV. […] NMJ activity was assessed by quantifying the percent of innervated and contracting myocytes in co-culture as previously described36. Briefly, after 12 days in co-culture, phase-contrast time lapse image series were acquired at a frame rate of 25 frames-per-second (25 FPS) using a X20 air objective. During imaging, cultures were maintained in controlled temperature and CO2 environment. For obtaining contraction time traces, we used the “Time Series Analyzer V3” plugin for FIJI ImageJ V.2.0.0, and marked a region of interest on a small, high contrast and mobile region on the muscle, and then obtained the mean values for each time point.

For “YGNKKNNNQNNN-VVEPEPEPEPEPEPEPVSE [G3BP1 190-208 peptide]”, the “size of endogenous G3BP1 aggregates per 100 μm of neurite” value [1] was “decrease in the size of G3BP1 aggregates”, the “size of endogenous G3BP1 aggregates per 100 μm of neurite” value ([1]; listed as 190-208 G3BP1 peptide) was “disassembly of G3BP1 granules” and the G3BP1/pTDP43 particle size [2] was “Reduce G3BP1/pTDP43 particle size”. The “pTDP43 RNP-condensate density” value [2] was “Reduce” and the “percent of innervated muscles that contract” value [3] was “reversed”.
